According to patent US8124634B2, “CB1 receptor modulators” (7TM Pharma A/S, priority 2006, dated 2012):
pIC50: −log10 of the molar value.

The molecules below were run against T1, human CB1 receptor (Homo sapiens, UniProt P21554) (assay: Cannabinoid Receptor-1 functional assay: inhibition of CP55940-induced [35S]GTPγS binding to membranes of CHO-K1 cells expressing human CB1). Conditions: 3 nM CP55940, hCB1 membranes, [35S]GTPγS SPA; read-out: IC50 value for antagonizing a CB1 receptor agonist.
T1 construct: expressed in transfected cells; membranes
T1 sequence (P21554 whole entry): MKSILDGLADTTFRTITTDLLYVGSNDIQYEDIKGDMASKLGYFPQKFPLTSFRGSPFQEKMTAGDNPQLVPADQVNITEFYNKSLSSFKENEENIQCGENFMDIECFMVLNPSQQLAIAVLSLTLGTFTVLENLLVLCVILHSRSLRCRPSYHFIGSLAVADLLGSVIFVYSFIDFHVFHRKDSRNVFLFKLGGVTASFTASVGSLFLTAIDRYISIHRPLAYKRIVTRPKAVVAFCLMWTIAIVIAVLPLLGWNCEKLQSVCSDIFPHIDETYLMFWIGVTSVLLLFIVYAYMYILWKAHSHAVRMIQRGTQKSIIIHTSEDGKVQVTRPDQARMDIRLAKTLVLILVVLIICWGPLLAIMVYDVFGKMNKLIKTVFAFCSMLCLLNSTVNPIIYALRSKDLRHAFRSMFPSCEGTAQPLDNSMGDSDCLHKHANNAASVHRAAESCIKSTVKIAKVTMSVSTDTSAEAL
Format: biochemical
Excerpt: Transfection and Cell Culture—The cDNA encoding the human CB1 (Cannabinoid Receptor-1) receptor (GenBank accession number NM_016083) was cloned from a human adipose tissue cDNA library and cloned into the eukaryotic expression vector pcDNA3.1 (Invitrogen).
Chinese Hamster Ovary cells (CHO-K1) stably expressing recombinant human CB1 were generated by transfecting the plasmid containing the coding sequence of the human CB1 receptor in CHO-K1 cells, using lipofectamin, according to the manufacturer instructions. Resistant clones were selected in the presence of 600 μg/ml G418 (Life technology). Stably transfected CHO-K1 cells were maintained in Ham's F-12 culture medium (Invitrogen), supplemented with 10% fetal calf serum (Invitrogen), 100 U/ml penicillin, 100 μg/ml streptomycin (Life Technology), and 600 μg/ml G418.
Cannabinoid Receptor-1 Functional Assay.
Functional activities of the above examples of compounds of the invention were assessed in vitro by measuring their ability to inhibit CP55940-induced [^35S]GTPγS binding to membranes prepared from CHO-K1 cells expressing the human CB1 receptor (described in Transfection and Cell Culture). CP55940 is a well known non-selective CB1 and CB2 receptor agonist (e.g Felder et al., 1995, Molecular Pharmacology, (48) 443-50). Membranes were prepared by a standard procedure. Briefly, cells were harvested using 10 mM EDTA and collected by centrifugation. Pelleted cells were homogenized in ice-cold 20 mM Hepes (pH 7.4),10 mM EDTA and protease inhibitors (Complete protease inhibitor cocktail tablet, Roche) using an Ultra Turrax Homogenizer. The homogenate was centrifuged at 14 000 rpm for 45 min. at 4° C. The resultant pellet was resuspended in the same buffer but with only 0.1 mM EDTA and was again centrifuged at 14 000 rpm for 45 min. at 4° C. The resulting pellet (membranes) was resuspended in 20 mM Hepes (pH 7.4), 0.1 mM EDTA, 2 mM MgCl2 and protease inhibitors and protein concentration was determined by Micro BCA Protein Assay Reagent Kit (Pierce Biotechnology) according to the manufacturer instructions. The [^35S]GYPγS SPA (Scintillation Proximity Assay) binding assay was performed by incubating 5 μg/well hCB1-membranes with 1 nM [^35S]GYPγS (Perkin Elmer—NEG 030H) in the presence of 3 nM of CP55940 and various concentrations of the test compounds at room temperature for 1 hr in 96-well microtiter plates. 0.4 mg/well SPA beads (PVT-WGA; RPNQ0001 Amersham Pharmacia Biotech) were then added and the incubation continued for further 30 min. on an orbital shaker. The assay buffer contained 50 mM HEPES (pH 7.5), 50 mM NaCl, 2.5 mM MgCl2, 0.1% BSA, 1 μM GDP and 100 μg/ml Saponin. Microtiter plates were centrifuged at 1500 rpm for 5 min. and radioactivity was read immediately using a Topcounter (PerkinElmer Life Sciences). Data were analyzed and IC50 values determined by non-linear regression using the Prism software (GraphPad Software, San Diego).

Structure (SMILES) | pIC50
C[C@@H](NC(=O)c1nn(-c2ccccc2Cl)c(-c2ccc(Cl)cc2)c1CC(=O)O)c1ccc(Br)cc1 [[1.6], [3-[(R)-1-(4-Bromo-phenyl)-ethylcarbamoyl]-1-(2-chloro-phenyl)-5-(4-chloro-phenyl)-1H-pyrazol-4-yl]-acetic acid] | > 6.52
C[C@H](c1ccc(C(F)(F)F)cc1)N(C)C(=O)c1nn(-c2ccccc2Cl)c(-c2ccc(Cl)cc2)c1Cc1nnn[nH]1 [[2.14], 1-(2-Chloro-phenyl)-5-(4-chloro-phenyl)-4-(1H-tetrazol-5-ylmethyl)-1H-pyrazole-3-carboxylic acid methyl-[(R)-1-(4-trifluoromethyl-phenyl)-ethyl]-amide] | > 6.52
C[C@H](Oc1c(C(=O)N[C@H](C)c2ccc(Br)cc2)nn(-c2ccccc2Cl)c1-c1ccc(Cl)cc1)C(=O)O [[1.2], (S)-2-[3-[(R)-1-(4-Bromo-phenyl)-ethylcarbamoyl]-1-(2-chloro-phenyl)-5-(4-chloro-phenyl)-1H-pyrazol-4-yloxy]-propionic acid] | 5.52 to 6.52
CC(C)(NC(=O)c1nn(-c2ccccc2Cl)c(-c2ccc(Cl)cc2)c1CC(=O)O)c1ccc(F)cc1 [Compound [1.1], {1-(2-Chloro-phenyl)-5-(4-chloro-phenyl)-3-[1-(4-fluoro-phenyl)-1-methyl-ethylcarbamoyl]-1H-pyrazol-4-yl}-acetic acid] | > 6.52
C[C@@H](Oc1c(C(=O)N[C@H](C)c2ccc(Br)cc2)nn(-c2ccccc2Cl)c1-c1ccc(Cl)cc1)C(=O)O [[1.4], (R)-2-[3-[(R)-1-(4-Bromo-phenyl)-ethylcarbamoyl]-1-(2-chloro-phenyl)-5-(4-chloro-phenyl)-1H-pyrazol-4-yloxy]-propionic acid] | > 6.52
CC(C)(NC(=O)c1nn(-c2ccccc2Cl)c(-c2ccc(Cl)cc2)c1Cc1nnn[nH]1)c1ccc(F)cc1 [[2.7], 1-(2-Chloro-phenyl)-5-(4-chloro-phenyl)-4-(1H-tetrazol-5-ylmethyl)-1H-pyrazole-3-carboxylic acid [1-(4-fluoro-phenyl)-1-methyl-ethyl]-amide] | 5.52 to 6.52
C[C@H](c1ccc(F)c(Cl)c1)N(C)C(=O)c1nn(-c2ccccc2Cl)c(-c2ccc(Cl)cc2)c1Cc1nnn[nH]1 [[2.28], 1-(2-Chloro-phenyl)-5-(4-chloro-phenyl)-4-(1H-tetrazol-5-ylmethyl)-1H-pyrazole-3-carboxylic acid methyl-[(R)-1-(3-chloro-4-fluoro-phenyl)-ethyl]-amide] | > 6.52
CC(C)(Cc1ccccc1)NC(=O)c1nn(-c2ccccc2Cl)c(-c2ccc(Cl)cc2)c1Cc1nnn[nH]1 [[2.2], 1-(2-Chloro-phenyl)-5-(4-chloro-phenyl)-4-(1H-tetrazol-5-ylmethyl)-1H-pyrazole-3-carboxylic acid (1,1-dimethyl-2-phenyl-ethyl)-amide] | > 6.52
C[C@H](c1ccc(C(F)(F)F)cc1)N(C)C(=O)c1nn(-c2ccccc2Cl)c(-c2ccc(Cl)cc2)c1CC(=O)O [Compound [1.7], (1-(2-Chloro-phenyl)-5-(4-chloro-phenyl)-3-{methyl-[(R)-1-(4-trifluoromethyl-phenyl)-ethyl]-carbamoyl}-1H-pyrazol-4-yl)-acetic acid] | > 6.52

Next, values leading:

pIC50 | Structure (SMILES)
> 6.52 | C[C@@H](NC(=O)c1nn(-c2ccccc2Cl)c(-c2ccc(Cl)cc2)c1Cc1nn[nH]n1)c1ccc(OC(F)(F)F)cc1 [[2.26], 1-(2-Chloro-phenyl)-5-(4-chloro-phenyl)-4-(2H-tetrazol-5-ylmethyl)-1H-pyrazole-3-carboxylic acid [(R)-1-(4-trifluoromethoxyl-phenyl)-ethyl]-amide]
> 6.52 | CC(NC(=O)c1nn(-c2ccccc2Cl)c(-c2ccc(Cl)cc2)c1Cc1nnn[nH]1)c1ccc(C(F)(F)F)c(F)c1 (stereo not shown) [[2.10], 5-(4-Chloro-phenyl)-1-(2-chloro-phenyl)-4-(1H-tetrazol-5-ylmethyl)-1H-pyrazole-3-carboxylic acid [1-(3-fluoro-4-trifluoromethyl-phenyl)-ethyl]-amide]
> 6.52 | C[C@H](c1ccc(OC(F)(F)F)cc1)N(C)C(=O)c1nn(-c2ccccc2Cl)c(-c2ccc(Cl)cc2)c1CC(=O)O [[1.9], (1-(2-Chloro-phenyl)-5-(4-chloro-phenyl)-3-{methyl-[(R)-1-(4-trifluoromethoxy-phenyl)-ethyl]-carbamoyl}-1H-pyrazol-4-yl)-acetic acid]
> 6.52 | C[C@@H](NC(=O)c1nn(-c2ccccc2Cl)c(-c2ccc(Cl)cc2)c1Cc1nn[nH]n1)c1ccc(Cl)c(Cl)c1 [[2.22], 1-(2-Chloro-phenyl)-5-(4-chloro-phenyl)-4-(2H-tetrazol-5-ylmethyl)-1H-pyrazole-3-carboxylic acid [(R)-1-(3,4-dichloro-phenyl)-ethyl]-amide]
> 6.52 | CC(NC(=O)c1nn(-c2ccccc2Cl)c(-c2ccc(Cl)cc2)c1Cc1nnn[nH]1)c1ccc(F)c(F)c1 (stereo not shown) [[2.16], 1-(2-Chloro-phenyl)-5-(4-chloro-phenyl)-4-(1H-tetrazol-5-ylmethyl)-1H-pyrazole-3-carboxylic acid [1-(3,4-difluoro-phenyl)-ethyl]-amide]
> 6.52 | C[C@@H](NC(=O)c1nn(-c2ccccc2Cl)c(-c2ccc(Cl)cc2)c1Cc1nn[nH]n1)c1ccc(C(F)(F)F)cc1 [[2.6], 5-(4-Chloro-phenyl)-1-(2-chloro-phenyl)-4-(2H-tetrazol-5-ylmethyl)-1H-pyrazole-3-carboxylic acid [(R)-1-(4-trifluoromethyl-phenyl)-ethyl]-amide]
> 6.52 | C[C@@H](NC(=O)c1nn(-c2ccccc2Cl)c(-c2ccc(Cl)cc2)c1Cc1nn[nH]n1)c1ccc(Cl)c(F)c1 [[2.23], 1-(2-Chloro-phenyl)-5-(4-chloro-phenyl)-4-(2H-tetrazol-5-ylmethyl)-1H-pyrazole-3-carboxylic acid [(R)-1-(3-fluoro-4-chloro-phenyl)-ethyl]-amide]
> 6.52 | C[C@@H](NC(=O)c1nn(-c2ccccc2Cl)c(-c2ccc(Cl)cc2)c1Cc1nnn[nH]1)c1cccc(F)c1 [[2.17], 1-(2-Chloro-phenyl)-5-(4-chloro-phenyl)-4-(1H-tetrazol-5-ylmethyl)-1H-pyrazole-3-carboxylic acid [(R)-1-(3-fluoro-phenyl)-ethyl]-amide]
> 6.52 | CCC(NC(=O)c1nn(-c2ccccc2Cl)c(-c2ccc(Cl)cc2)c1Cc1nnn[nH]1)c1ccc(Br)cc1 (stereo not shown) [[2.11], 1-(2-Chloro-phenyl)-5-(4-chloro-phenyl)-4-(1H-tetrazol-5-ylmethyl)-1H-pyrazole-3-carboxylic acid [1-(4-bromo-phenyl)-propyl]-amide]
> 6.52 | C[C@@H](NC(=O)c1nn(-c2ccccc2Cl)c(-c2ccc(Cl)cc2)c1OCc1nnn[nH]1)c1ccc(C(F)(F)F)cc1 [Compound [3.1], 1-(2-Chloro-phenyl)-5-(4-chloro-phenyl)-4-(1H-tetrazol-5-ylmethoxy)-1H-pyrazole-3-carboxylic acid [(R)-1-(4-trifluoromethyl-phenyl)-ethyl]-amide]
> 6.52 | C[C@@H](NC(=O)c1nn(-c2ccccc2Cl)c(-c2ccc(Cl)cc2)c1Cc1nnn[nH]1)c1ccc(F)cc1 [[2.8], 1-(2-Chloro-phenyl)-5-(4-chloro-phenyl)-4-(1H-tetrazol-5-ylmethyl)-1H-pyrazole-3-carboxylic acid [(R)-1-(4-fluoro-phenyl)-ethyl]-amide]
> 6.52 | C[C@@H](NC(=O)c1nn(-c2ccccc2Cl)c(-c2ccc(Cl)cc2)c1Cc1nnn[nH]1)c1cccc(C(F)(F)F)c1 [[2.12], 1-(2-Chloro-phenyl)-5-(4-chloro-phenyl)-4-(1H-tetrazol-5-ylmethyl)-1H-pyrazole-3-carboxylic acid [(R)-1-(3-trifluoromethyl-phenyl)-ethyl]-amide]
> 6.52 | C[C@@H](NC(=O)c1nn(-c2ccccc2Cl)c(-c2ccc(Cl)cc2)c1Cc1nn[nH]n1)c1ccc(Br)cc1 [[2.3], 1-(2-Chloro-phenyl)-5-(4-chloro-phenyl)-4-(1H-tetrazol-5-ylmethyl)-1H-pyrazole-3-carboxylic acid [(R)-1-(4-bromo-phenyl)-ethyl]-amide]
